Tests used:
Anas platyrhynchos = details: short-term; oral; feed; mortality
Apis mellifera = details: acute; duration: 48 hours; dermal; mortality
Bibionidae = details: chronic/long-term; duration: 28 days
Canidae = details: chronic; duration: 52 weeks; oral; Dog Other; histopathology: nonneoplastic
Colinus virginianus = details: acute; oral; mortality
Coturnix japonica = details: reproduction developmental
Daphnia magna = details: chronic/long-term; duration: 21 days; reproduction
Hypoaspis aculeifer = details: chronic/long-term
Lepomis macrochirus = details: acute; duration: 96 hours; mortality
Oncorhynchus mykiss = details: chronic/long-term; duration: 28 days; other
Aphidius rhopalosiphi = test: LR50; higher = less toxic; details: not reported; mortality

COC(=O)[N-]S(=O)(=O)c1ccc(N)cc1.[Na+] [Asulam-sodium]
LD50 (Anas platyrhynchos): > 22700 mg/kg-day | LD50 (Apis mellifera): > 100 µg/piece | NOEC (Bibionidae): 91.3 mg/L | NOAEL (Canidae): 100 mg/kg-day | LD50 (Colinus virginianus): > 1830 mg/kg | NOAEC (Coturnix japonica): 65 mg/kg-day | NOEL (Coturnix japonica): 19 mg/kg-day | NOEC (Daphnia magna): 6.4 mg/L | NOEC (Hypoaspis aculeifer): 4370 mg/kg | LC50 (Lepomis macrochirus): > 91.3 µg/mL | NOEC (Oncorhynchus mykiss): 119 mg/L | LD50 (Rattus norvegicus; acute, oral, mortality): > 4560 mg/kg | NOAEL (Rattus norvegicus; chronic, duration: 2 years, hematological): 36 mg/kg-day | NOEL (Rattus norvegicus; reproduction developmental, reproduction): 46 mg/kg-day | LC50 (Tagia sp.; acute, duration: 14 days, mortality): 1000 mg/kg | NOEC (Tagia sp.; chronic/long-term, duration: 56 days): 181 mg/kg | LR50 (Aphidius rhopalosiphi): 3090 mL/ha
